Assay results from patent publication US4133888A, “Analgesic and morphine antagonistic 2'-hydroxy-2-(5-isoxazolyl-methyl)-6,7-benzomorphans and salts thereof” (Boehringer Ingelheim GmbH, priority 1977, dated 1979).

How the values were obtained:
mouse [1] = assay: Analgesia, writhing test, mouse s.c.; format: in vivo; details: for ED50: sc, mouse s.c.
Source text: (§1) The compounds of the present invention, that is, those embraced by formula I above and their non-toxic, pharmacologically acceptable acid addition salts, have useful pharmacodynamic properties. More particularly, they exert a therapeutically useful effect upon the central nervous system in warm-blooded animals, such as mice, especially analgesic and morphine-antagonistic activities, which were confirmed in the writhing test and the Haffner test. Pursuant to prevailing teachings, this agonistic/antagonistic activity spectrum points toward the absence of or a very low abuse potential.

mouse [2] = assay: Morphine-antagonism, mouse (Nalorphine = 1); format: in vivo; details: for Morphine-antagonism (Nalorphine = 1): mouse, relative potency
Source text: as §1

Toxicity, mouse, s.c. = format: in vivo; details: in vivo, sc; for LD50: mouse; for selectivity ratio: mouse s.c., LD50 / writhing ED50, read-out: Index LD50/ED50
mouse [3] = assay: Toxicity, mouse, s.c.; format: in vivo
[4] = system: withdrawn morphine dependent rats; assay: Suppression of abstinence symptoms in withdrawn morphine dependent rats; format: in vivo, rat
Source text: as §1

[5] = system: withdrawn morphine dependent monkeys; assay: Suppression of abstinence symptoms in withdrawn morphine dependent monkeys; format: in vivo, monkey

| Structure (SMILES) | ED50 (mouse [1]) | antagonistic component (mouse [2]; morphine antagonism, in words) | Morphine-antagonism (Nalorphine = 1) (mouse [2]) | LD50 (Toxicity, mouse, s.c.) | selectivity ratio (Toxicity, mouse, s.c.) | analgesic activity compared with 2-furfuryl-2'-hydroxy-5,9-α-dimethyl-6,7-benzomorphan (mouse [1]; vs. 2-furfuryl compound) | therapeutic index compared with 2-furfuryl-2'-hydroxy-5,9-α-dimethyl-6,7-benzomorphan (mouse [3]; vs. 2-furfuryl compound) | therapeutic index compared to pentazocine (mouse [3]; vs. pentazocine) | suppression of abstinence symptoms [4] | suppression of abstinence symptoms [5] |
| --- | --- | --- | --- | --- | --- | --- | --- | --- | --- | --- |
| Cc1ccoc1CN1CC[C@@]2(C)c3cc(O)ccc3C[C@@H]1[C@@H]2C (relative stereo) [2-(3-methyl-furfuryl)-2'-hydroxy-5,9-α-dimethyl-6,7-benzomorphan] | 0.6 mg/kg | does not have the desired antagonistic component | inactive | 305 mg/kg | 508 | – | – | – | – | – |
| C[C@H]1[C@H]2Cc3ccc(O)cc3[C@]1(C)CCN2Cc1ccco1 (relative stereo) [2-furfuryl-2'-hydroxy-5,9-α-dimethyl-6,7-benzomorphan] | 18 mg/kg | – | 1 | 292 mg/kg | 16 | – | – | – | – | – |
| C[C@H]1[C@H]2Cc3ccc(O)cc3[C@]1(C)CCN2Cc1ccno1 (relative stereo) [Example 1, 5,9-α-Dimethyl-2'-hydroxy-2-(5-isoxazolyl-methyl)-6,7-benzomorphan] | 0.6 mg/kg | – | 0.1 | 1080 mg/kg | 1800 | significantly superior | significantly superior | far superior | not capable of suppressing the abstinence symptoms | not capable of suppressing the abstinence symptoms |
| CC(C)=CCN1CCC2(C)c3cc(O)ccc3CC1C2C (stereo not shown) [Pentazocine] | 1.4 mg/kg | – | 0.025 | 220 mg/kg | 157 | – | – | – | – | – |
